# Test results as given in paper PMC2885673, “Interaction of triosephosphate isomerase from the cell surface of Staphylococcus aureus and α-(1→3)-mannooligosaccharides derived from glucuronoxylomannan of Cryptococcus neoformans” (Microbiology, 2009).
# Experiments:
# [1] = target: T1, triosephosphate isomerase (TPI) from S. aureus (Staphylococcus aureus, UniProt Q2G030); assay: SPR (Biacore […]), TPI immobilized, heterogeneous ligand-parallel reaction fit; type: binding; details: HBS-EP pH 7.4, 150 mM NaCl, 3 mM EDTA; second site of a two-site fit (stronger site)
# T1 construct: gene tpiA; native, purified from LiCl surface protein extract; 253 amino acids (homology model); amine-coupled to CM5 chip for SPR
# T1 sequence (Q2G030 whole entry): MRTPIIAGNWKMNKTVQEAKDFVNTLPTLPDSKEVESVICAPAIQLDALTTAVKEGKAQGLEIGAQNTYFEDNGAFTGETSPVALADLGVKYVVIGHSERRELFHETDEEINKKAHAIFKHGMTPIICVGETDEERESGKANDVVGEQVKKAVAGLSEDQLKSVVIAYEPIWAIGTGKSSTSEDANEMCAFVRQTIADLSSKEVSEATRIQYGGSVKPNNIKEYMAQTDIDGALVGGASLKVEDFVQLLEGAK
# [2] = target: T1, triosephosphate isomerase (TPI) from S. aureus; assay: coupled NADH / glycerol-3-phosphate dehydrogenase assay, A340; type: biochemical; details: 0.45 mM DL-glyceraldehyde 3-phosphate; S. aureus surface protein extract per the assay description
SMILES,Heterogeneous ligand-parallel reaction / Kd2 [1] [µM],inhibition of TPI activity at 100 μM [2]
"OC[C@H]1O[C@H](O[C@@H]2[C@H](O)[C@@H](O[C@H]3[C@H](O)[C@@H](CO)OC(O)[C@H]3O)O[C@H](CO)[C@H]2O)[C@@H](O)[C@@H](O)[C@@H]1O (stereo partly shown) [M3, mannotriose]",124,"dose-dependent inhibition was observed with mannotriose, mannotetraose and mannopentaose"
"OC[C@H]1O[C@H](O[C@@H]2[C@H](O)[C@@H](O[C@@H]3[C@H](O)[C@@H](O[C@H]4[C@H](O)[C@@H](CO)OC(O)[C@H]4O)O[C@H](CO)[C@H]3O)O[C@H](CO)[C@H]2O)[C@@H](O)[C@@H](O)[C@@H]1O (stereo partly shown) [M4, mannotetraose]",0.0146,"dose-dependent inhibition was observed with mannotriose, mannotetraose and mannopentaose"
"OC[C@H]1O[C@H](O[C@@H]2[C@H](O)[C@@H](O[C@@H]3[C@H](O)[C@@H](O[C@@H]4[C@H](O)[C@@H](O[C@H]5[C@H](O)[C@@H](CO)OC(O)[C@H]5O)O[C@H](CO)[C@H]4O)O[C@H](CO)[C@H]3O)O[C@H](CO)[C@H]2O)[C@@H](O)[C@@H](O)[C@@H]1O (stereo partly shown) [M5, mannopentaose]",18.6,"dose-dependent inhibition was observed with mannotriose, mannotetraose and mannopentaose"
"OC[C@H]1O[C@H](O[C@H]2[C@H](O)[C@@H](CO)OC(O)[C@H]2O)[C@@H](O)[C@@H](O)[C@@H]1O (stereo partly shown) [M2, mannobiose]",5.37,–
